Legend:
[1] = xn = mol fraction of the nth substance listed; conditions: 318.15 K, 101 kPa, Liquid
[2] = excess molar enthalpy (molar enthalpy of mixing); xn = mol fraction of the nth substance listed; conditions: 318.15 K, 101 kPa, Liquid

CCCCOC(=O)CC [butyl propanoate] + CCCCCCC
Conditions	excess molar enthalpy [kcal/mol]	excess molar volume [m3/mol]
[1], x1 = 0.0273	–	5.6e-08
[1], x1 = 0.0572	–	1.25e-07
[1], x1 = 0.1181	–	2.05e-07
[1], x1 = 0.1785	–	2.96e-07
[1], x1 = 0.2334	–	3.5e-07
[1], x1 = 0.2923	–	3.76e-07
[1], x1 = 0.3518	–	3.93e-07
[1], x1 = 0.4089	–	4e-07
[1], x1 = 0.4681	–	3.95e-07
[1], x1 = 0.528	–	3.75e-07
[1], x1 = 0.586	–	3.44e-07
[1], x1 = 0.6449	–	3.06e-07
[1], x1 = 0.7036	–	2.6e-07
[1], x1 = 0.7666	–	2.08e-07
[1], x1 = 0.8207	–	1.76e-07
[1], x1 = 0.8838	–	1.05e-07
[1], x1 = 0.937	–	7.2e-08
[2], x1 = 0.0476	0.0417	–
[2], x1 = 0.1067	0.0841	–
[2], x1 = 0.1732	0.121	–
[2], x1 = 0.2357	0.146	–
[2], x1 = 0.2979	0.163	–
[2], x1 = 0.3579	0.176	–
[2], x1 = 0.4131	0.183	–
[2], x1 = 0.4328	0.185	–
[2], x1 = 0.464	0.186	–
[2], x1 = 0.475	0.187	–
[2], x1 = 0.5206	0.186	–
[2], x1 = 0.5701	0.181	–
[2], x1 = 0.6256	0.171	–
[2], x1 = 0.6846	0.156	–
[2], x1 = 0.7498	0.134	–
[2], x1 = 0.8152	0.106	–
[2], x1 = 0.8835	0.0717	–
[2], x1 = 0.9449	0.0357	–

CCCCCCCCCCCCCCC [pentadecane] + CCC(=O)OC
Conditions	excess molar enthalpy [kcal/mol]	excess molar volume [m3/mol]
[1], x2 = 0.0815	–	3.78e-07
[1], x2 = 0.1606	–	7e-07
[1], x2 = 0.2792	–	1.134e-06
[1], x2 = 0.377	–	1.401e-06
[1], x2 = 0.4695	–	1.535e-06
[1], x2 = 0.5395	–	1.586e-06
[1], x2 = 0.6103	–	1.569e-06
[1], x2 = 0.6695	–	1.514e-06
[1], x2 = 0.7187	–	1.405e-06
[1], x2 = 0.7639	–	1.277e-06
[1], x2 = 0.8034	–	1.137e-06
[1], x2 = 0.8389	–	1.001e-06
[1], x2 = 0.8718	–	8.65e-07
[1], x2 = 0.9023	–	7.29e-07
[1], x2 = 0.9297	–	5.72e-07
[1], x2 = 0.9549	–	4.07e-07
[1], x2 = 0.9781	–	2.28e-07
[2], x2 = 0.125	0.172	–
[2], x2 = 0.233	0.296	–
[2], x2 = 0.3463	0.398	–
[2], x2 = 0.435	0.457	–
[2], x2 = 0.5058	0.486	–
[2], x2 = 0.5584	0.495	–
[2], x2 = 0.6021	0.495	–
[2], x2 = 0.6368	0.487	–
[2], x2 = 0.6819	0.466	–
[2], x2 = 0.7197	0.439	–
[2], x2 = 0.7527	0.408	–
[2], x2 = 0.7913	0.367	–
[2], x2 = 0.8294	0.318	–
[2], x2 = 0.8668	0.272	–
[2], x2 = 0.9037	0.217	–
[2], x2 = 0.94	0.151	–
[2], x2 = 0.9713	0.0789	–

CCCCCOC(=O)CC [pentyl propanoate] + CCCCCCCCCCCCC
Conditions	excess molar enthalpy [kcal/mol]	excess molar volume [m3/mol]
[1], x1 = 0.0877	–	2.09e-07
[1], x1 = 0.1642	–	3.71e-07
[1], x1 = 0.2425	–	5.1e-07
[1], x1 = 0.3196	–	6.05e-07
[1], x1 = 0.3804	–	6.65e-07
[1], x1 = 0.4461	–	6.93e-07
[1], x1 = 0.5107	–	7.04e-07
[1], x1 = 0.5701	–	6.95e-07
[1], x1 = 0.6258	–	6.64e-07
[1], x1 = 0.6801	–	6.16e-07
[1], x1 = 0.7305	–	5.62e-07
[1], x1 = 0.7814	–	4.99e-07
[1], x1 = 0.8272	–	4.41e-07
[1], x1 = 0.8719	–	3.34e-07
[1], x1 = 0.9166	–	2.64e-07
[1], x1 = 0.9578	–	1.29e-07
[2], x1 = 0.0691	0.0578	–
[2], x1 = 0.1382	0.105	–
[2], x1 = 0.2136	0.151	–
[2], x1 = 0.2861	0.185	–
[2], x1 = 0.3564	0.209	–
[2], x1 = 0.4222	0.224	–
[2], x1 = 0.4822	0.229	–
[2], x1 = 0.5355	0.228	–
[2], x1 = 0.578	0.222	–
[2], x1 = 0.5956	0.219	–
[2], x1 = 0.6423	0.207	–
[2], x1 = 0.6875	0.193	–
[2], x1 = 0.7398	0.171	–
[2], x1 = 0.7927	0.148	–
[2], x1 = 0.8474	0.118	–
[2], x1 = 0.9008	0.0823	–
[2], x1 = 0.9546	0.0415	–
